Key:
Format in all cases: cell-based
[1] = tested on: multiple myeloma cell lines (MM.1S, 8226, KMS-11, U266)
Protocol: (§1) Cytotoxicity assay: Cells were incubated for 24 hr at 37° C. in 5% CO2 at which time drug treatments began and continued for 24 hr. At this time attached cells were trypsinized and combined with their respective culture media while suspension cells were directly transferred to a tube followed by centrifugation at 400 g for 5 min. The pellets were resuspended in 1 ml of Hanks solution and analyzed by Vi-Cell (Beckman Coulter, Fullerton, Calif.) cell viability analyzer.

[2] = tested on: non-myeloma cell lines (NALM6, 143B, MDA-MB-435, 1420); conditions: higher concentrations; all cell types
Protocol: as §1

[3] = tested on: MM cell lines (MM1.S, 8226, KMS-11, U266); assay: Measurement of cytoplasmic calcium (indo-1 fluorescence ratio 400/500 nm); conditions: MM cell lines
Protocol: (§2) Measurement of cytoplasmic calcium: Cytoplasmic Ca^2+ concentration was estimated by using the cell permeant fluorochrome indo-1-AM (Invitrogen, Carlsbad, Calif.). When excited at 355 nm, the maximum emission of indo-1 shifts from 500 nm to 400 nm following its binding to free Ca^2+. Thus, the ratio of reading at 400 nm and 500 nm correlates with concentration of cytoplasmic Ca^2+. Experiments were performed in cells loaded with indo-1 by incubating them with 2.5 μM of this fluorochrome at 37° C. for 45 min. Cells were then centrifuged at 400 g for 5 min and resuspended in their growth medium followed by distribution of 100 μl of aliquots into 96 well optical bottom plates (Nalge Nunc, Int., Rochester, N.Y.) and fluorescence was measured by Spectra Max Gemini Plus (Molecular Devices, Sunnyvale, Calif.). The average of triplicates from untreated samples was used as control reading and increase in cytoplasmic Ca^2+ was calculated as percent increase from control samples.

[4] = tested on: non-myeloma cell lines (NALM6, MDA-MB-435, 143B, 1420); assay: as above; conditions: non-myeloma cell lines (oligomycin: all cell lines)
Protocol: as §2

[5] = tested on: MM.1S and REH cell lines; assay: Mitochondrial membrane potential (JC-1) after CCCP; conditions: immediately after 10 μM CCCP
Protocol: (§3) […]. A) ψm potential, B) mitochondrial Ca^2+ and C) cytoplasmic Ca^2+ levels were measured using the fluorochromes JC-1, X-rhod-1 and indo-1, respectively. After 10 min of initial baseline measurement, CCCP was added into each well to achieve a final concentration of 10 μM and changes in fluorescence intensity was assayed for up to 2 h. In the graphs the time point of CCCP addition is marked as ‘0’. The graph is an average of triplicate samples with +SD.
Assaying mitochondrial function: Two parameters were assayed for mitochondrial function: Δψm and oxygen consumption. Δψm was estimated using […] (JC-1, Invitrogen, Carlsbad, Calif., USA). Oxygen consumption was measured in 3×10^6 cells using a Clark's electrode (Hansatech, Cambridge, UK).

[6] = tested on: MM.1S and REH cell lines; assay: Mitochondrial Ca2+ (X-rhod-1) after CCCP; conditions: 10 μM CCCP; both cell types
Protocol: as §3
Measurement of cytoplasmic and mitochondrial calcium: Cytoplasmic Ca^2+ concentration was estimated by using the cell permeant ratiometric fluorochrome indo-1-AM (Invitrogen, Carlsbad, Calif., USA) while mitochondrial Ca^2+ was measured by X-Rhod-1-AM (Invitrogen, Carlsbad, Calif., USA). In the latter assay, to normalize mitochondrial Ca^2+ signal to mitochondria number, Mitotracker Green (Invitrogen, Carlsbad, Calif., USA) fluorescence was simultaneously analyzed. Experiments were performed in cells loaded with either 2.5 μM of indo-1 or 5 μM X-rhod-1 and 250 nM of Mitotracker at 37° C. for 45 min. Cells were, then, centrifuged at 400 g for 5 min and resuspended in their growth medium followed by distribution of 100 μl of aliquots into 96 well optical bottom plates (Nalge Nunc, Int., Rochester, N.Y., USA) and fluorescence was measured by Spectra Max Gemini Plus (Molecular Devices, Sunnyvale, Calif., USA). […]

[7] = tested on: MM.1S cells; assay: Cytoplasmic Ca2+ (indo-1) after CCCP; conditions: 10 μM CCCP
Protocol: as §3
(§4) Measurement of cytoplasmic and mitochondrial calcium: Cytoplasmic Ca^2+ concentration was estimated by using the cell permeant ratiometric fluorochrome indo-1-AM (Invitrogen, Carlsbad, Calif., USA) while mitochondrial Ca^2+ was measured by X-Rhod-1-AM (Invitrogen, Carlsbad, Calif., USA). In the latter assay, to normalize mitochondrial Ca^2+ signal to mitochondria number, Mitotracker Green (Invitrogen, Carlsbad, Calif., USA) fluorescence was simultaneously analyzed. Experiments were performed in cells loaded with either 2.5 μM of indo-1 or 5 μM X-rhod-1 and 250 nM of Mitotracker at 37° C. for 45 min. Cells were, then, centrifuged at 400 g for 5 min and resuspended in their growth medium followed by distribution of 100 μl of aliquots into 96 well optical bottom plates (Nalge Nunc, Int., Rochester, N.Y., USA) and fluorescence was measured by Spectra Max Gemini Plus (Molecular Devices, Sunnyvale, Calif., USA). The average of triplicates from untreated samples was used as control reading and increase in cytoplasmic or mitochondrial Ca^2+ was calculated as percent increase from control samples.

[8] = tested on: REH cells; assay: Cytoplasmic Ca2+ (indo-1) after CCCP; conditions: 10 μM CCCP
Protocol: as §3, §4

[9] = tested on: MM.1S and REH cells; assay: ATP levels after 6 h of CCCP treatment; conditions: 6 h CCCP; REH versus MM.1S
Protocol: (§5) A) Reversal of CCCP induced toxicity by either 10 μM BAPTA-AM or 50 μM of Z-VAD was investigated using trypan blue exclusion assays. The bars represent the average of triplicate samples +SD. B) ATP levels were assayed following 6 h of treatment with indicated concentrations of CCCP. The bars represent the average of triplicate samples +SD. C) Induction of UPR, activation of AMPK pathway and cleavage of caspase 3 was analyzed by western blots following 24 h treatment with indicated concentrations of CCCP in MM.1S and REH cell lines. β-Actin was used as a loading control. D) The quantification of phosphorylated AMPK and total AMPK bands in the previous panel was done using a Bio-Rad gel reader which employs Quality I software. The bars represent the fold increase in the ratio of p-AMPK/AMPK in treated versus untreated samples from three independent experiments +SD.

[10] = tested on: MM.1S cells
Protocol: as §5
(§6) Western blot analysis: Western blots were performed. Membranes were probed with monoclonal rabbit anti-GRP94, anti GRP-78, anti-PDI, anti-CHOP/GADD153, anti-cleaved caspase 3 (Cell Signaling, Danvers, Mass., USA) and monoclonal mouse anti-β-actin (Sigma, St. Louis, Mo., USA).

[11] = tested on: REH cells; assay: Western blot after 24 h CCCP (UPR, AMPK pathway, caspase 3)
Protocol: as §5, §6

[12] = tested on: CHOP/GADD153 and cleaved caspase 3 in MM.1S, 8226, KMS-11; assay: Western blot of CHOP/GADD153 and cleaved caspase 3 in 3 MM cell lines; conditions: CCCP
Protocol: . Induction of UPR-mediated apoptosis following treatment of 3 MM cell lines with four different mitochondrial inhibitors for various time points was assayed by western blot analysis of CHOP and cleaved caspase 3.
as §6

N#CC(C#N)=NNc1cccc(Cl)c1 [CCCP]
cytotoxic potency compared to the other mitochondrial inhibitors ([1]; 24 h, MM cells): equipotency in inducing cytotoxicity in MM cells
order of sensitivity among MM cell lines ([1]; 24 h treatment): greater in 8226 as compared to MM.1S cells
cytotoxicity (cell death) ([1]; 24 h treatment, all 4 MM cell lines): more toxic to multiple myeloma cell lines as compared to other cell types
cytotoxicity at higher concentrations [2]: significant toxicity is induced in all cell types
cytoplasmic Ca2+ after mitochondrial inhibitor [3]: immediate increase in cytoplasmic Ca^2+
effect on mitochondrial Ca2+ uptake ([3]; estimated from cytoplasmic Ca2+): equally inhibit mitochondrial Ca^2+ uptake
increase in cytoplasmic Ca2+ after mitochondrial inhibitor [4]: not seen in non-myeloma cell lines except for NALM6
Δψm [5]: significantly reduced in both cell types
mitochondrial Ca2+ [6]: lowering of Ca^2+ concentration in the mitochondrial matrix
cytoplasmic Ca2+ levels directly after addition [7]: go up in both cell types
cytoplasmic Ca2+ levels later (after clearance phase) [7]: remain elevated
cytoplasmic Ca2+ levels directly after addition [8]: go up in both cell types
cytoplasmic Ca2+ levels later (after clearance phase) [8]: go back to control levels
ATP levels [9]: decreased more significantly in REH cells, as compared to MM.1S cells
CCCP concentration at which caspase 3 starts to get cleaved ([10]; 24 h, MM cells): 5 µM
CCCP concentration giving significant induction of CHOP/GADD153 expression ([10]; 24 h, MM.1S): 2.5 µM
potency in upregulating CHOP/GADD153, MM versus B-cell leukemia ([10]; FIG. 12c): four times more potent
AMPK phosphorylation at higher doses ([10]; MM.1S): suppressed
eif2α phosphorylation and ATF4 upregulation ([10]; MM.1S treated with CCCP): not detected
CCCP concentration required for similar increase of CHOP/GADD153 ([11]; 24 h, REH): at least 10 μM
AMPK phosphorylation at higher doses ([11]; REH): continues to increase
cleaved caspase 3 ([11]; REH, even at the 10 μM dose): no cleaved caspase 3 can be detected
AMPK phosphorylation ([11]; highest dose (10 μM) CCCP, REH compared to MM.1S): more phosphorylated
CHOP/GADD153 induction compared among the 3 MM cell lines [12]: more profound in MM.1S and 8226 as compared to KMS-11
caspase 3 cleavage compared among the 3 MM cell lines [12]: more rapidly in MM.1S and 8226 versus KMS-11
